The values below come from patent publication US20090035345A1, “Nuclear Receptors Agonists for Treatment of Atherosclerosis and/or Related Cardiovascular Disease” (ACADEMISCH MEDISCH CENTRUM, BUREAU, priority 2005, published 2009).

One data set deals with human SMCs. The data set is described as follows: Apoptosis of SMCs, Hoechst staining of nuclei. As to conditions: human, 24 h. It is filed as cell-based. The method, then:
Human SMCs were explanted from umbilical cord arteries. Cells were cultured in DMEM (Invitrogen Life Technology, Breda, The Netherlands) with 10% (v/v) fetal bovine serum (FBS) with penicillin and streptomycin (Invitrogen). Cells were used at passages five to seven. […] To determine cellular viability, cells were washed with PBS and subsequently incubated in medium in the presence of 0.5-mg/ml 3-(4,5-dimethylthiazol-2-yl)-2,5-diphenyltetrazolium bromide (MTT; Sigma Diagnostics, St. Louis). After two hours, medium was discarded, formazan crystals were dissolved in isopropanol and optical density was measured at 590 nm. Apoptosis was induced by incubating cells for 24 hours in medium with 0.25 μM staurosporine (Sigma). Subsequently, SMCs were fixed, stained with Hoechst dye and the relative number of apoptotic nuclei was determined.

In data set [1] the test system is cuff-induced neointima formation in mouse femoral artery. As to the kind of experiment: Femoral artery cuff murine model, 6-MP-eluting cuffs. The following applies: for cuff-induced neointima formation (intimal area): 4 weeks. Format: in vivo. An excerpt: All animal work was approved by AMC institutional regulatory authority and carried out in compliance with guidelines issued by the Dutch government. Wild-type FVB mice (Wt), transgenic mice expressing the full-length Nur77 gene (Nur77), or mice expressing a dominant-negative variant of Nur77 (ΔTA) (the latter two strains under control of the SM22α promoter, which directs the expression of transgenes specific to SMCs), in an FVB background, were used for experiments. Male mice, 10-12 weeks old, were fed a standard chow diet. At the time of surgery, mice were anaesthetized with an intraperitoneal injection of 5 mg/kg Dormicum (Roche, Basel, Switzerland), 0.5 mg/kg Dormitor (Orion, Helsinki, Finland) and 0.05 mg/kg Fentanyl (Janssen, Geel, Belgium). The femoral artery was dissected from its surroundings and loosely sheathed with a non-constrictive cuff. Either a control, empty cuff or a 6-MP eluting cuff (0.5% or 1% w/w) was used (n=6/group).
Wt and Nur77-overexpressing transgenic mice were sacrificed at 28 days after cuff placement, whereas ATA transgenic mice were sacrificed at 14 days after surgery. The thorax was opened and a mild pressure-perfusion (100 mmHg) with 4% (v/v) formaldehyde in 0.9% (w/v) NaCl was performed for 5 min by cardiac puncture. After perfusion, femoral arteries were harvested, fixed overnight in 4% (v/v) formaldehyde, dehydrated and paraffin embedded. Serial cross-sections (5 μm thick) for histological analysis were used throughout the entire length of the cuffed femoral artery. All samples were routinely stained with hematoxylin-phloxine-saffron (HPS). Weigert's elastin staining was used to visualize elastic laminae. Ten equally spaced cross-sections were used in all mice to quantify intimal lesions. Using image analysis software (Leica Qwin, Wetzlar, Germany), total cross sectional medial area was measured between the external and internal elastic lamina; total cross sectional intimal area was measured between the endothelial cell monolayer and the internal elastic lamina.
In vitro experiments were repeated at least twice and are presented as mean±SD and were analyzed by the Student t-test. Animal experiments are presented as mean±SEM and were analyzed using the Mann-Whitney U-test (SPSS 11.5 for Windows). P-values less than 0.05 were regarded as statistically significant.

Data set [2] concerns saphenous vein smooth muscle cells. As to the kind of experiment: Cyclic stretch-induced DNA synthesis ([3H]-thymidine incorporation) in venous SMCs. Format: cell-based, human. The method, then:
To study stretch-induced responses, smooth muscle cells were seeded in 6-well plates containing collagen Icoated flexible membranes (BioFlex® culture plates, Dunn Labortechnik GmbH, Asbach, Germany) and were stretched in the Flexercell FX3000 apparatus (Dunn Labortechnik) for 1, 2, 4, 6, or 24 h at 10% stretch at 0.5 Hz or served as control (without stretch). Silicone-based lubricant was applied to prevent friction between the membrane and loading post.
Smooth muscle cells were seeded in 6-well stretch plates and when wells were confluent, smooth muscle cells were made quiescent for 16 h in medium containing 0.5% (v/v) FBS.
The plates were transferred into the Loading Station™ and stretched for 24 h. Control plates, without stretch, were cultured under identical conditions. Thereafter, cells were labeled for 4 h with 0.5 microCi/mL [methyl-^3H]-thymidine (Amersham Biosciences).
Incorporated radioactivity was precipitated for 30 min at 4° C. with 10% (wt/v) trichloroacetic acid, washed twice with 5% (wt/v) trichloroacetic acid and dissolved in 0.5N NaOH. [^3H]-thymidine was measured by liquid scintillation counting.
When cells were infected with mock- or TR3-containing adenovirus (3×10^8 plaque-forming units) for 2 h, the cells were allowed to recover for 24 h in complete medium before they were made quiescent. Agonist treatment (6-MP) was initiated 1 h prior to stretch with 0, 1, 10, 25 microM C-DIM (stock at 40 mM in DMSO).
The following small interfering RNA (siRNA) sequences were used: TR3 siRNA, 5′-CAG UCC AGC CAU GCU CCU C dTdT-3′, and mutated control siRNA, 5′-CAG ACG AGC CUU GCU CGU C dTdT-3′ (Ambion Inc., UK). Per Flexerplate-well 1 μg of siRNA was transfected into 5×10^5 SMCs using Nucleofector reagent for SMCs (Amaxa GmbH, Cologne, Germany) as per the manufacturer's recommendations and subsequently the cells were placed in the stretch plates and were treated as described above.

A short description of data set [3]: In vitro release from drug-eluting poly(ε-caprolactone) cuffs. The following applies: 0.5% and 1% cuffs, 4-week period. Format: physicochemical.
Procedure: Briefly, 6-MP was dissolved at different concentrations in blended, molten drug-polymer mix and cuffs were designed to fit around the femoral artery of mice. Drug-eluting cuffs are shaped as longitudinally cut cylinders with an internal diameter of 0.5 mm, an external diameter of 1.0 mm, a length of 2.0 mm and a weight of approximately 5.0 mg. Drug-eluting cuffs were loaded with 0.5% (w/w) and 1% (w/w) 6-MP and the in vitro release profiles were determined for a 4-week period, as described before (n=5/group).
Setting [4] is: Nur77 transgenic mice, 0.5% 6-MP cuff.
The mark [5] stands for this setting: Nur77 transgenic mice, 1% 6-MP cuff.

“Also recorded” adds a separate entry of the source.

For the molecule `Sc1ncnc2nc[nH]c12` [6-MP, 6-mercaptopurine], the “apoptosis (apoptotic nuclei)” value in the data set on human SMCs is listed as 3%±2%. Moreover, the intima/media ratio in data set [1] (setting [4]) came out at 0.47±0.05; in data set [1] (setting [5]), 0.30±0.06; in data set [1] (Wt mice, 0.5% 6-MP cuff) it was 0.75±0.05; in data set [1] (Wt mice, 1% 6-MP cuff), 0.51±0.03. The “cuff-induced neointima formation (intimal area)” value is reported as “substantially reduced” in data set [1] (setting [4]); “significant inhibition” in data set [1] (setting [5]); “did not show a decrease” in data set [1] (Wt mice, 0.5% 6-MP cuff); “significant inhibition” in data set [1] (Wt mice, 1% 6-MP cuff). Besides, the “medial areas of the cuffed femoral arteries” value in data set [1] (Wt and Nur77 transgenic mice) was “No changes”. The “neointima formation (intimal area)” value is “no significant effect” in data set [1] (ΔTA transgenic mice, 0.5% 6-MP cuff, 2 weeks) and “no significant effect” in data set [1] (ΔTA transgenic mice, 1% 6-MP cuff, 2 weeks). Also, in data set [1] (ΔTA transgenic mice, 2 weeks), the media thickness result is reported as “did not change”. Also, the “effect on stretch-induced DNA synthesis after TR3 knockdown” value in data set [2] (venous SMCs transfected with TR3-siRNA) was “completely abolishes the effect of 6-MP; also recorded: no longer inhibits DNA synthesis”. In addition, in data set [2] (venous SMCs, 24 h cyclic stretch, 25 μM 6-MP), the “stretch-induced DNA synthesis” value is “completely inhibited”. Besides, in data set [2] (venous SMCs, 24 h cyclic stretch, 6-MP at various concentrations), the “stretch-induced DNA synthesis ([3H]-thymidine incorporation)” value was “reduced stretch-mediated proliferation in a dose-dependent manner”. Moreover, the “in vitro release profile” value in data set [3] is “sustained and dose-dependent release”.
